Data published in patent publication US20240210412A1, “SULFONYL-TRIAZOLE COMPOUNDS USEFUL AS LIGANDS AND INHIBITORS OF PROSTAGLANDIN REDUCTASE 2” (University of Virginia Patent Foundation, priority 2021, published 2024).

What was measured:
Experiment in all cases: SILAC LC-MS ABPP
Format in all cases: cell-based
Conditions in all cases: 25 μM 2 h, live DM93 cells
P49585 = target: T1, P49585 (Homo sapiens, UniProt P49585)
T1 construct: endogenous in cells; host or cells: DM93 cells (SILAC)
Procedure, shortened: (§1)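 In DM93 melanoma cells, heavy SILAC cultures take 25 μM SuTEx compound for 2 h at 37 °C while light cultures take DMSO. Both then receive HHS-475 alkyne probe at 100 μM for 2 h; probe-modified peptides are quantified by LC-MS/MS.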

Q16576 = target: T2, Q16576 (Homo sapiens, UniProt Q16576)
T2 construct: performing SuTEx compound screening directly in cells; endogenous in cells; host or cells: DM93 cells (SILAC), soluble fraction
Procedure, shortened: as §1

P17066 = target: T3, P17066 (Homo sapiens, UniProt P17066)
T3 construct: Probe-modified proteins from the soluble fraction were conjugated to a desthiobiotin-azide tag; endogenous in cells; host or cells: DM93 (SILAC)
Procedure, shortened: as §1

P49721 = target: T4, P49721 (Homo sapiens, UniProt P49721)
T4 construct: endogenous in cells; host or cells: DM93 cells (SILAC)
Procedure, shortened: as §1

O14777 = target: T5, O14777 (Homo sapiens, UniProt O14777)
T5 construct: endogenous in cells; host or cells: DM93
Procedure, shortened: as §1

P24534 = target: T6, P24534 (Homo sapiens, UniProt P24534)
T6 construct: endogenous in cells; host or cells: DM93 (SILAC)
Procedure, shortened: as §1

Q92804 = target: T7, Q92804 (Homo sapiens, UniProt Q92804)
T7 construct: endogenous in cells; host or cells: DM93 cells (SILAC), live-cell treatment
Procedure, shortened: as §1

Q9UDY2 = target: T8, Q9UDY2 (Homo sapiens, UniProt Q9UDY2)
T8 construct: endogenous in cells; host or cells: DM93 cells (SILAC)
Procedure, shortened: as §1

O60763 = target: T9, O60763 (Homo sapiens, UniProt O60763)
T9 construct: endogenous in cells; host or cells: DM93
Procedure, shortened: as §1

Q9BWT3 = target: T10, Q9BWT3 (Homo sapiens, UniProt Q9BWT3)
T10 construct: endogenous in cells; host or cells: DM93 cells (SILAC), treated live; soluble proteome analysed
Procedure, shortened: as §1

O43852 = target: T11, O43852 (Homo sapiens, UniProt O43852)
T11 construct: endogenous in cells; host or cells: DM93
Procedure, shortened: as §1

Q99797 = target: T12, Q99797 (Homo sapiens, UniProt Q99797)
T12 construct: endogenous in cells; host or cells: DM93 cells (SILAC), treated live; soluble proteome analysed
Procedure, shortened: as §1

Q13107 = target: T13, Q13107 (Homo sapiens, UniProt Q13107)
T13 construct: performing SuTEx compound screening directly in cells; endogenous in cells; host or cells: DM93 cells (SILAC), soluble fraction
Procedure, shortened: as §1

O95260 = target: T14, O95260 (Homo sapiens, UniProt O95260)
T14 construct: endogenous in cells; host or cells: DM93 cells (SILAC)
Procedure, shortened: as §1

P23921 = target: T15, P23921 (Homo sapiens, UniProt P23921)
T15 construct: Probe-modified proteins from the soluble fraction were conjugated to a desthiobiotin-azide tag; endogenous in cells; host or cells: DM93 (SILAC)
Procedure, shortened: as §1

O75351 = target: T16, O75351 (Homo sapiens, UniProt O75351)
T16 construct: endogenous in cells; host or cells: DM93
Procedure, shortened: as §1

Q9BXJ9 = target: T17, Q9BXJ9 (Homo sapiens, UniProt Q9BXJ9)
T17 construct: endogenous in cells; host or cells: DM93 cells (SILAC), treated live; soluble proteome analysed
Procedure, shortened: as §1

O95163 = target: T18, O95163 (Homo sapiens, UniProt O95163)
T18 construct: endogenous in cells; host or cells: DM93 cells (SILAC)
Procedure, shortened: as §1

T17 sequence (Q9BXJ9 whole entry): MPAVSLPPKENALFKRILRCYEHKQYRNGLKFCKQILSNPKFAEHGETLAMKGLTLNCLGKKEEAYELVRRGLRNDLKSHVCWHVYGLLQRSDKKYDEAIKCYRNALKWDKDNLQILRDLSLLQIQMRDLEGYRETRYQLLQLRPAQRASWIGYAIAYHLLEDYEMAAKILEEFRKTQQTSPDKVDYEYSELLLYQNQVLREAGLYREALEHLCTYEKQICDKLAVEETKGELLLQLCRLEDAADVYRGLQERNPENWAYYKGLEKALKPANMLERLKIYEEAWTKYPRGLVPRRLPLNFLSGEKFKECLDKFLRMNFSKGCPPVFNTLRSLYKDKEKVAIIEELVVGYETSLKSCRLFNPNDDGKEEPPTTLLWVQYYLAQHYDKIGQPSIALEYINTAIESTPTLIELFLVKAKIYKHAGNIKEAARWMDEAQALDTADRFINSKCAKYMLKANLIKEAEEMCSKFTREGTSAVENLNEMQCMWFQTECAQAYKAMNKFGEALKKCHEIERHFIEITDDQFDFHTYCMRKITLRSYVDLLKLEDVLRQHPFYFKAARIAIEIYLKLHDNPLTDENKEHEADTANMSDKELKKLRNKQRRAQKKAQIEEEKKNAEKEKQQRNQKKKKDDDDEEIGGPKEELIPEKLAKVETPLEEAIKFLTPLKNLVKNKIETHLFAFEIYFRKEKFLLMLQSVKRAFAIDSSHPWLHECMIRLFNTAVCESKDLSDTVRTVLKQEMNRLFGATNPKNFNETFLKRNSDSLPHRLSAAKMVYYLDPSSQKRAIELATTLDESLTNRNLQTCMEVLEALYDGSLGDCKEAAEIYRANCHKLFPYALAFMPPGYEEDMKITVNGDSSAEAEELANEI
T15 sequence (P23921 whole entry): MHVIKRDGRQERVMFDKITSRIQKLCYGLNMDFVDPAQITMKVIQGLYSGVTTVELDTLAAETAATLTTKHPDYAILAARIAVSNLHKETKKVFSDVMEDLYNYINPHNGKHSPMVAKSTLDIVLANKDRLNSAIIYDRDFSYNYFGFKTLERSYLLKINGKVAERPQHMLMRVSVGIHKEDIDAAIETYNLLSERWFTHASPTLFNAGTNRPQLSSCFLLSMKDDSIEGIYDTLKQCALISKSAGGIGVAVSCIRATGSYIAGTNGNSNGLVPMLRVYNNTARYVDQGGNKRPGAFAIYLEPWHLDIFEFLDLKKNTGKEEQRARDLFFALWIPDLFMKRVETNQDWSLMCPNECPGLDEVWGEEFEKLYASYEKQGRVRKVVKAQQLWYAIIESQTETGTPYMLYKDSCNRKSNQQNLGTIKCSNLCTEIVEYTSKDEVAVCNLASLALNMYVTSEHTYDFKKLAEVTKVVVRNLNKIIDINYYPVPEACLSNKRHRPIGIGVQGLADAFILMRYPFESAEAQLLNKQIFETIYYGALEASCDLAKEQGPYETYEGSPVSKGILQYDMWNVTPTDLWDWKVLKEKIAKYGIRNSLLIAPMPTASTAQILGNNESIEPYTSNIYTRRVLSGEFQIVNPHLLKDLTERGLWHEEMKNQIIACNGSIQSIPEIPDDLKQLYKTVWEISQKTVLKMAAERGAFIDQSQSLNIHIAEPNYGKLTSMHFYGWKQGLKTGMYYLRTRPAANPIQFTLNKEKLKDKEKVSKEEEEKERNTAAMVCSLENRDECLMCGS
T10 sequence (Q9BWT3 whole entry): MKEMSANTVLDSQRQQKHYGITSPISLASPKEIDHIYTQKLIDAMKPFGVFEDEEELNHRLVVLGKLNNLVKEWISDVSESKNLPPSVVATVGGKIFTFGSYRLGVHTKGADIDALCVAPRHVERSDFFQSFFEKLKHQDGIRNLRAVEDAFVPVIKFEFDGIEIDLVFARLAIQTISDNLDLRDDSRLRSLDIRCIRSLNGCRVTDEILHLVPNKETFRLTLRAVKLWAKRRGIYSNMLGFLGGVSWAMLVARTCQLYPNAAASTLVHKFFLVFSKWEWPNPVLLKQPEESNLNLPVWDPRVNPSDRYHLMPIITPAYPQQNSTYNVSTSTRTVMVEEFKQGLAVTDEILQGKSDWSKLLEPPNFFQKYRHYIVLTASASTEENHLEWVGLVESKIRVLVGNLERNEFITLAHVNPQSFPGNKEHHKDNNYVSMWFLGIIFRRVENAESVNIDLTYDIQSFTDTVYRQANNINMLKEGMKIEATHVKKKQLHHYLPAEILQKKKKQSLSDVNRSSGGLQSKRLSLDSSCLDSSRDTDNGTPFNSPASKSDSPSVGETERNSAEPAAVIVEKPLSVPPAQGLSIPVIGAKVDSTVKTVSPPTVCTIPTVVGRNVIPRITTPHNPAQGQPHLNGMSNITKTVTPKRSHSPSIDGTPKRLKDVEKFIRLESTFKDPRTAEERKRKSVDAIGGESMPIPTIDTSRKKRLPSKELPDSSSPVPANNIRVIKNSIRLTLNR
T6 sequence (P24534 whole entry): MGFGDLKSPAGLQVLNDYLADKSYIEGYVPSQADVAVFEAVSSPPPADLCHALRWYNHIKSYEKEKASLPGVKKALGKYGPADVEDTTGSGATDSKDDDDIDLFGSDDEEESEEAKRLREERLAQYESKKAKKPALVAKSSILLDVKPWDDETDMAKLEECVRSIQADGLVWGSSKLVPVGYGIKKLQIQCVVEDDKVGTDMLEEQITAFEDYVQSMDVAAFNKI
T7 sequence (Q92804 whole entry): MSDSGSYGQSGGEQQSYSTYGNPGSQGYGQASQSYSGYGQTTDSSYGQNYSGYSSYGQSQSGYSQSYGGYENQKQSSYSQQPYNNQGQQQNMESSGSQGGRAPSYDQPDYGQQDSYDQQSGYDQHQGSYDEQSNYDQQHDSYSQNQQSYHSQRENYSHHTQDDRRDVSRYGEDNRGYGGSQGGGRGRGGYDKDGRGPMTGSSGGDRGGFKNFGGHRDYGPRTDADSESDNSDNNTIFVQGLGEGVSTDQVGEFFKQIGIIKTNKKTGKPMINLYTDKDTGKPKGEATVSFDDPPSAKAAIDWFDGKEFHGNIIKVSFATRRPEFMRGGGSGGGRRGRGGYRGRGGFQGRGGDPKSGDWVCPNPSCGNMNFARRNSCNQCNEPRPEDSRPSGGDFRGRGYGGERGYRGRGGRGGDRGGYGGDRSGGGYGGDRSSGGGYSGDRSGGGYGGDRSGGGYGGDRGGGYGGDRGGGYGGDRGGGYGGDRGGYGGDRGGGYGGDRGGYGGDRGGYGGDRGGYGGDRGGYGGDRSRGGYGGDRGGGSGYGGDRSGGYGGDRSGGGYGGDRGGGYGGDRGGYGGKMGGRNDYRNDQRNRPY
T16 sequence (O75351 whole entry): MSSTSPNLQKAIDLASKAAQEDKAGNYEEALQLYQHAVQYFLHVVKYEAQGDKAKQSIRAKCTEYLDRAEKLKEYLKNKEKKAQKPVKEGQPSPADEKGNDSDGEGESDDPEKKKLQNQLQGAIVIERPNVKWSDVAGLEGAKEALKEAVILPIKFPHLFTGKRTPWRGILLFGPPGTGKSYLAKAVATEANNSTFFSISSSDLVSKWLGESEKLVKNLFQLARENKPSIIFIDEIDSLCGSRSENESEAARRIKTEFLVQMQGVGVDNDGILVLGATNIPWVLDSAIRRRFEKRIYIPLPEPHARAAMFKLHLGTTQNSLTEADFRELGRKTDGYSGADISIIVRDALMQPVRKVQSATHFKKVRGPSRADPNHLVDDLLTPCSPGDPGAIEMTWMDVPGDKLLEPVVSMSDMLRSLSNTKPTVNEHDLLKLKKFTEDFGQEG
T5 sequence (O14777 whole entry): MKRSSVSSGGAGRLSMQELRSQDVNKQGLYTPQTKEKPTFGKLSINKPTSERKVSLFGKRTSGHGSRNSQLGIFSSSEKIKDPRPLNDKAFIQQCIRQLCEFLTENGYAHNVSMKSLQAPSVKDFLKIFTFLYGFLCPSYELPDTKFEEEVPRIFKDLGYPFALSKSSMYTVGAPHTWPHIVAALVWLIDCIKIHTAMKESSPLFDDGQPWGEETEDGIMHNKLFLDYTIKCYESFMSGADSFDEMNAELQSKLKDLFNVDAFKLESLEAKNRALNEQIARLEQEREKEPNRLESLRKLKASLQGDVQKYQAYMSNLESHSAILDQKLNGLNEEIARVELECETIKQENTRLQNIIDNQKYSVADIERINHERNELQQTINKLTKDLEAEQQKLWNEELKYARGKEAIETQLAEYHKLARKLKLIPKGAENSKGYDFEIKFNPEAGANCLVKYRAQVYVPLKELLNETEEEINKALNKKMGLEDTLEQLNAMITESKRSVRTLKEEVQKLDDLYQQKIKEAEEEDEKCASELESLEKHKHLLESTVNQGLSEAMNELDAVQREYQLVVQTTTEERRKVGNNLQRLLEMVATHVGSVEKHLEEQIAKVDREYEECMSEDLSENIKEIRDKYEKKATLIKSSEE
T1 sequence (P49585 whole entry): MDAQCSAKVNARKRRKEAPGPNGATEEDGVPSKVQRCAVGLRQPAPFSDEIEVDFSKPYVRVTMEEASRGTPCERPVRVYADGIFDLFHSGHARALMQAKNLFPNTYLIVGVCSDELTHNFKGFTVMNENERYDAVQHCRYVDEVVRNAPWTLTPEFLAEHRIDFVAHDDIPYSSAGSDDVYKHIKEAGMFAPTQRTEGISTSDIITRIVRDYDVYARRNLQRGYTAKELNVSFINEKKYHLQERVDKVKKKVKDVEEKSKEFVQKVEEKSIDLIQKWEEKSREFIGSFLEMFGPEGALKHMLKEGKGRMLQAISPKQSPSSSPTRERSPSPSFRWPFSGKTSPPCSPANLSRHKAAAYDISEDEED
T11 sequence (O43852 20-315): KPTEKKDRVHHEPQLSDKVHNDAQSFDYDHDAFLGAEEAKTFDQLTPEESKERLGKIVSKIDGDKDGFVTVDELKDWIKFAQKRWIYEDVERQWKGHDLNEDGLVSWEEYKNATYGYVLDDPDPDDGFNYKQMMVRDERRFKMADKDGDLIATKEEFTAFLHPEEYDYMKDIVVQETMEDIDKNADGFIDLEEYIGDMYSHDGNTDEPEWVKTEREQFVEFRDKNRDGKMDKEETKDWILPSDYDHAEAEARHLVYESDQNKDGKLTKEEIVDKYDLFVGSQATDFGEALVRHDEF

`O=C(NC1CCCCC1)c1ccc(S(=O)(=O)n2cncn2)cc1` [HHS-0301, 4-((1H-1,2,4-triazol-1-yl)sulfonyl)-N-cyclohexylbenzamide] was tested, and the “liganded tyrosine site 173” value (P49585) was “HHS0301.Y (tyrosine sites that showed >80% reductions (SR >5) in probe labeling in cells treated with compounds (liganded sites))”, the “liganded tyrosine site 153” value (Q16576) was “HHS0301.Y|HHS0701.Y (tyrosine sites that showed >80% reductions (SR >5) in probe labeling in cells treated with compounds (liganded sites))” and the “liganded tyrosine site 373” value (P17066) was “HHS0301.Y (tyrosine sites that showed >80% reductions (SR >5) in probe labeling in cells treated with compounds (liganded sites))”.
For `O=C(c1ccc(S(=O)(=O)n2cncn2)cc1)N1CCC(c2ccccc2)CC1` [HHS-0701, (4-((1H-1,2,4-triazol-1-yl)sulfonyl)phenyl)(4-phenylpiperidin-1-yl)methanone], the “liganded tyrosine site 134” value (P49721) was “HHS0701.Y (tyrosine sites that showed >80% reductions (SR >5) in probe labeling in cells treated with compounds (liganded sites))” and the “liganded tyrosine site 310” value (O14777) was “HHS0701.Y (tyrosine sites that showed >80% reductions (SR >5) in probe labeling in cells treated with compounds (liganded sites))”.
In the case of `O=C(NCC1CC1)c1ccc(S(=O)(=O)n2cncn2)cc1` [HHS-0201, 4-((1H-1,2,4-triazol-1-yl)sulfonyl)-N-(cyclopropylmethyl)benzamide], the “liganded tyrosine site 18” value (P24534) is reported as “HHS0201.Y|HHS0401.Y|HHS0701.Y (tyrosine sites that showed >80% reductions (SR >5) in probe labeling in cells treated with compounds (liganded sites))”, the “liganded tyrosine site 170” value (Q92804) is reported as “HHS0201.Y|HHS0301.Y (tyrosine sites that showed >80% reductions (SR >5) in probe labeling in cells treated with compounds (liganded sites))” and the “liganded tyrosine site 423” value (Q9UDY2) is reported as “HHS0201.Y|HHS0301.Y (tyrosine sites that showed >80% reductions (SR >5) in probe labeling in cells treated with compounds (liganded sites))”. For the same compound, the “liganded tyrosine site 718” value (O60763) was “HHS0201.Y (tyrosine sites that showed >80% reductions (SR >5) in probe labeling in cells treated with compounds (liganded sites))”, the “liganded tyrosine site 326” value (Q9BWT3) was “HHS0201.Y|HHS0701.Y (tyrosine sites that showed >80% reductions (SR >5) in probe labeling in cells treated with compounds (liganded sites))” and the “liganded tyrosine site 294” value (O43852) was “HHS0201.Y (tyrosine sites that showed >80% reductions (SR >5) in probe labeling in cells treated with compounds (liganded sites))”. For the same compound, the “liganded tyrosine site 273” value (Q99797) was “HHS0201.Y (tyrosine sites that showed >80% reductions (SR >5) in probe labeling in cells treated with compounds (liganded sites))” and the “liganded tyrosine site 192” value (Q13107) was “HHS0201.Y|HHS0301.Y (tyrosine sites that showed >80% reductions (SR >5) in probe labeling in cells treated with compounds (liganded sites))”.
With `O=C(NCc1ccccc1)c1ccc(S(=O)(=O)n2cncn2)cc1` [HHS-0401, 4-((1H-1,2,4-triazol-1-yl)sulfonyl)-N-benzylbenzamide] the “liganded tyrosine site 63” value (O95260) was “HHS0401.Y|HHS0701.Y (tyrosine sites that showed >80% reductions (SR >5) in probe labeling in cells treated with compounds (liganded sites))”, the “liganded tyrosine site 485” value (P23921) was “HHS0401.Y (tyrosine sites that showed >80% reductions (SR >5) in probe labeling in cells treated with compounds (liganded sites))” and the “liganded tyrosine site 47” value (O75351) was “HHS0401.Y (tyrosine sites that showed >80% reductions (SR >5) in probe labeling in cells treated with compounds (liganded sites))”.
With `O=C(NC1CC1)c1ccc(S(=O)(=O)n2cncn2)cc1` [HHS-0101, 4-((1H-1,2,4-triazol-1-yl)sulfonyl)-N-cyclopropylbenzamide] the “liganded tyrosine site 86” value (Q9BXJ9) was “HHS0101.Y|HHS0701.Y (tyrosine sites that showed >80% reductions (SR >5) in probe labeling in cells treated with compounds (liganded sites))” and the “liganded tyrosine site 957” value (O95163) was “HHS0101.Y|HHS0301.Y|HHS0401.Y (tyrosine sites that showed >80% reductions (SR >5) in probe labeling in cells treated with compounds (liganded sites))”.
